The supplement of paper PMC10307832

How the values were obtained:
Assay in all cases: relative viability (nuclei count vs DMSO), 5 days (fraction); higher = more cells survive
RERF-LC-KJ = system: RERF-LC-KJ
Method in brief: (§1)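 Cells from lung cancer lines were seeded into 1536-well plates and, one day later, dosed by pin tool. Treatments were either a single drug or a fixed dose of an anchor drug with five library-drug doses (not always all listed) in √10 steps. After 5 days, nuclei were stained in a one-step fixation (final 0.05% Triton X-100, 1% formaldehyde, 1 ug/ml Hoechst) and counted on 4× images, and relative viability is the treated-to-vehicle nuclei ratio, as the median of duplicate plates.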

PC-14 = system: PC-14
Method in brief: as §1

NCI-H2405 = system: NCI-H2405
Method in brief: as §1

NCI-H1666 = system: NCI-H1666
Method in brief: as §1

NCI-H23 = system: NCI-H23
Method in brief: as §1

NCI-H2126 = system: NCI-H2126
Method in brief: as §1

HCC-827 = system: HCC-827
Method in brief: as §1

HCC-78 = system: HCC-78
Method in brief: as §1

H3255 = system: H3255
Method in brief: as §1

NCI-H650 = system: NCI-H650
Method in brief: as §1

NCI-H520 = system: NCI-H520
Method in brief: as §1

NCI-H661 = system: NCI-H661
Method in brief: as §1

NCI-H2087 = system: NCI-H2087
Method in brief: as §1

NCI-H647 = system: NCI-H647
Method in brief: as §1

201T = system: 201T
Method in brief: as §1

NCI-H1915 = system: NCI-H1915
Method in brief: as §1

LCLC-97TM1 = system: LCLC-97TM1
Method in brief: as §1

EPLC-272H = system: EPLC-272H
Method in brief: as §1

LC-2-ad = system: LC-2-ad
Method in brief: as §1

ChaGo-K-1 = system: ChaGo-K-1
Method in brief: as §1

NCI-H2347 = system: NCI-H2347
Method in brief: as §1

COR-L 105 = system: COR-L 105
Method in brief: as §1

**Q.** How did the relative viability (RERF-LC-KJ; first compound 0.08 µM) turn out when `COc1nc(C)cnc1NS(=O)(=O)c1cccnc1-c1ccc(-c2nnco2)cc1` [Zibotentan] + COc1cccc2cc(-c3nc([C@H]4CC[C@H](C(=O)O)CC4)n4ncnc(N)c34)[nH]c12 [OSI-027] (partner 0.5 µM) was run?
**A.** 0.609

**Q.** What about the relative viability (RERF-LC-KJ; first compound 0.8 µM) of the same molecule?
**A.** 0.521

**Q.** And the relative viability (RERF-LC-KJ; first compound 2.53 µM)?
**A.** 0.646

**Q.** What about the relative viability (PC-14; first compound 0.08 µM) of the same molecule?
**A.** 0.926

**Q.** What about the relative viability (PC-14; first compound 0.253 µM) of the same molecule?
**A.** 0.651

**Q.** And the relative viability (PC-14; first compound 0.8 µM)?
**A.** 1.06

**Q.** What about the relative viability (PC-14; first compound 2.53 µM) of the same molecule?
**A.** 0.929

**Q.** What about the relative viability (NCI-H2405; first compound 0.08 µM) of the same molecule?
**A.** 0.694

**Q.** What about the relative viability (NCI-H2405; first compound 0.253 µM) of the same molecule?
**A.** 0.657

**Q.** And the relative viability (NCI-H2405; first compound 0.8 µM)?
**A.** 0.663

**Q.** And the relative viability (NCI-H2405; first compound 2.53 µM)?
**A.** 0.627

**Q.** And the relative viability (NCI-H1666; first compound 0.08 µM)?
**A.** 0.929

**Q.** What about the relative viability (NCI-H1666; first compound 0.253 µM) of the same molecule?
**A.** 0.751

**Q.** What about the relative viability (NCI-H1666; first compound 0.8 µM) of the same molecule?
**A.** 0.814

**Q.** And the relative viability (NCI-H1666; first compound 2.53 µM)?
**A.** 0.877

**Q.** And the relative viability (NCI-H23; first compound 0.08 µM)?
**A.** 0.63

**Q.** What about the relative viability (NCI-H23; first compound 0.253 µM) of the same molecule?
**A.** 0.619

**Q.** What about the relative viability (NCI-H23; first compound 0.8 µM) of the same molecule?
**A.** 0.389

**Q.** And the relative viability (NCI-H23; first compound 2.53 µM)?
**A.** 0.743

**Q.** And the relative viability (NCI-H2126; first compound 0.08 µM)?
**A.** 0.769

**Q.** What about the relative viability (NCI-H2126; first compound 0.253 µM) of the same molecule?
**A.** 0.718

**Q.** And the relative viability (NCI-H2126; first compound 0.8 µM)?
**A.** 0.609

**Q.** And the relative viability (NCI-H2126; first compound 2.53 µM)?
**A.** 0.684

**Q.** What about the relative viability (HCC-827; first compound 0.08 µM) of the same molecule?
**A.** 0.826

**Q.** And the relative viability (HCC-827; first compound 0.253 µM)?
**A.** 0.836

**Q.** And the relative viability (HCC-827; first compound 0.8 µM)?
**A.** 0.754

**Q.** And the relative viability (HCC-827; first compound 2.53 µM)?
**A.** 0.767

**Q.** What about the relative viability (HCC-78; first compound 0.08 µM) of the same molecule?
**A.** 0.358

**Q.** And the relative viability (HCC-78; first compound 0.253 µM)?
**A.** 0.332

**Q.** What about the relative viability (HCC-78; first compound 0.8 µM) of the same molecule?
**A.** 0.356

**Q.** And the relative viability (HCC-78; first compound 2.53 µM)?
**A.** 0.323

**Q.** And the relative viability (H3255; first compound 0.08 µM)?
**A.** 0.536

**Q.** And the relative viability (H3255; first compound 0.253 µM)?
**A.** 0.542

**Q.** And the relative viability (H3255; first compound 0.8 µM)?
**A.** 0.576

**Q.** And the relative viability (H3255; first compound 2.53 µM)?
**A.** 0.526

**Q.** What about the relative viability (NCI-H650; first compound 0.08 µM) of the same molecule?
**A.** 0.54

**Q.** And the relative viability (NCI-H650; first compound 0.253 µM)?
**A.** 0.509

**Q.** And the relative viability (NCI-H650; first compound 0.8 µM)?
**A.** 0.566

**Q.** And the relative viability (NCI-H650; first compound 2.53 µM)?
**A.** 0.649

**Q.** What about the relative viability (NCI-H520; first compound 0.08 µM) of the same molecule?
**A.** 0.295

**Q.** And the relative viability (NCI-H520; first compound 0.253 µM)?
**A.** 0.24

**Q.** What about the relative viability (NCI-H520; first compound 0.8 µM) of the same molecule?
**A.** 0.264

**Q.** What about the relative viability (NCI-H520; first compound 2.53 µM) of the same molecule?
**A.** 0.31

**Q.** And the relative viability (NCI-H661; first compound 0.08 µM)?
**A.** 0.801

**Q.** And the relative viability (NCI-H661; first compound 0.253 µM)?
**A.** 0.671

**Q.** And the relative viability (NCI-H661; first compound 0.8 µM)?
**A.** 0.705

**Q.** What about the relative viability (NCI-H661; first compound 2.53 µM) of the same molecule?
**A.** 0.756

**Q.** And the relative viability (NCI-H2087; first compound 0.08 µM)?
**A.** 0.506

**Q.** What about the relative viability (NCI-H2087; first compound 0.253 µM) of the same molecule?
**A.** 0.506

**Q.** And the relative viability (NCI-H2087; first compound 0.8 µM)?
**A.** 0.613

**Q.** What about the relative viability (NCI-H2087; first compound 2.53 µM) of the same molecule?
**A.** 0.632

**Q.** And the relative viability (NCI-H647; first compound 0.08 µM)?
**A.** 0.665

**Q.** What about the relative viability (NCI-H647; first compound 0.253 µM) of the same molecule?
**A.** 0.584

**Q.** What about the relative viability (NCI-H647; first compound 0.8 µM) of the same molecule?
**A.** 0.755

**Q.** What about the relative viability (NCI-H647; first compound 2.53 µM) of the same molecule?
**A.** 0.725

**Q.** What about the relative viability (201T; first compound 0.08 µM) of the same molecule?
**A.** 0.819

**Q.** What about the relative viability (201T; first compound 0.253 µM) of the same molecule?
**A.** 0.699

**Q.** What about the relative viability (201T; first compound 0.8 µM) of the same molecule?
**A.** 0.679

**Q.** What about the relative viability (201T; first compound 2.53 µM) of the same molecule?
**A.** 0.755

**Q.** What about the relative viability (NCI-H1915; first compound 0.08 µM) of the same molecule?
**A.** 0.637

**Q.** What about the relative viability (NCI-H1915; first compound 0.253 µM) of the same molecule?
**A.** 0.627

**Q.** And the relative viability (NCI-H1915; first compound 0.8 µM)?
**A.** 0.603

**Q.** And the relative viability (NCI-H1915; first compound 2.53 µM)?
**A.** 0.649

**Q.** What about the relative viability (LCLC-97TM1; first compound 0.08 µM) of the same molecule?
**A.** 0.602

**Q.** And the relative viability (LCLC-97TM1; first compound 0.253 µM)?
**A.** 0.72

**Q.** And the relative viability (LCLC-97TM1; first compound 0.8 µM)?
**A.** 0.606

**Q.** What about the relative viability (LCLC-97TM1; first compound 2.53 µM) of the same molecule?
**A.** 0.49

**Q.** And the relative viability (EPLC-272H; first compound 0.08 µM)?
**A.** 0.328

**Q.** What about the relative viability (EPLC-272H; first compound 0.253 µM) of the same molecule?
**A.** 0.287

**Q.** And the relative viability (EPLC-272H; first compound 0.8 µM)?
**A.** 0.269

**Q.** And the relative viability (EPLC-272H; first compound 2.53 µM)?
**A.** 0.301

**Q.** What about the relative viability (LC-2-ad; first compound 0.08 µM) of the same molecule?
**A.** 0.817

**Q.** What about the relative viability (LC-2-ad; first compound 0.8 µM) of the same molecule?
**A.** 1.13

**Q.** And the relative viability (LC-2-ad; first compound 2.53 µM)?
**A.** 0.79

**Q.** What about the relative viability (ChaGo-K-1; first compound 0.08 µM) of the same molecule?
**A.** 0.547

**Q.** And the relative viability (ChaGo-K-1; first compound 0.253 µM)?
**A.** 0.579

**Q.** And the relative viability (ChaGo-K-1; first compound 0.8 µM)?
**A.** 0.583

**Q.** And the relative viability (ChaGo-K-1; first compound 2.53 µM)?
**A.** 0.604

**Q.** What about the relative viability (NCI-H2347; first compound 0.253 µM) of the same molecule?
**A.** 0.384

**Q.** And the relative viability (NCI-H2347; first compound 0.8 µM)?
**A.** 0.49

**Q.** What about the relative viability (NCI-H2347; first compound 2.53 µM) of the same molecule?
**A.** 0.259

**Q.** And the relative viability (COR-L 105; first compound 0.08 µM)?
**A.** 0.822

**Q.** What about the relative viability (COR-L 105; first compound 0.253 µM) of the same molecule?
**A.** 0.618

**Q.** And the relative viability (COR-L 105; first compound 0.8 µM)?
**A.** 0.941

**Q.** What about the relative viability (COR-L 105; first compound 2.53 µM) of the same molecule?
**A.** 0.909
